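Assay format: 96-well plates, 48-hour exposure. GI50 is the concentration that inhibits growth by half. The concentration for full growth arrest is given as TGI.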
Experiments:
Assay in all cases: NCI tumour cell line growth inhibition, 48 h
KM20L2 colon = tested on: KM20L2 colon
DMS 114 small cell lung = tested on: DMS 114 small cell lung
RXF-631 renal = tested on: RXF-631 renal
LXFL 529 NSCLC = tested on: LXFL 529 NSCLC
T-47D breast = tested on: T-47D breast
MDA-N = tested on: MDA-N
SN12K1 renal = tested on: SN12K1 renal
P388/ADR leukemia = tested on: P388/ADR leukemia
P388 leukemia = tested on: P388 leukemia

SMILES	TGI (KM20L2 colon)	TGI (DMS 114 small cell lung)	TGI (LXFL 529 NSCLC)	GI50 (T-47D breast)	TGI (T-47D breast)	other results
COc1cccc(C2C(C(=O)Nc3cc(=O)n(C)c(=O)n3C)=C(C)NC(C)=C2C(=O)Nc2cc(=O)n(C)c(=O)n2C)c1O	> 100 µM	> 100 µM	> 100 µM	–	–	TGI (RXF-631 renal): > 100 µM
Fc1ccc(-c2ncn(C3CCNCC3)c2-c2ccnc(Oc3cccc(F)c3)n2)cc1	–	–	–	13.8 µM	> 25 µM	–
Cc1ccc(Nc2ccc(Nc3ccc(C)cc3)c3c2C(=O)c2c(O)ccc(O)c2C3=O)cc1	–	> 100 µM	> 100 µM	–	–	–
CN(Cc1cnc2nc(N)nc(N)c2n1)c1ccc(C(=O)NC(CCC(=O)O)C(=O)O)cc1 (stereo unspecified)	–	–	–	> 100 µM	> 100 µM	–
C=C(C)C1/C=C(/C(C)C)CC[C@]2(C)O[C@@H]2CC[C@H](C)CC1=O (stereo partly specified)	–	–	–	76.7 µM	> 100 µM	–
COC(=O)CCC1=C(C)c2cc3[n-]c(cc4nc(cc5[n-]c(cc1n2)c(CCC(=O)OC)c5C)C=C4C)cc3C.[Cd+2]	–	–	–	2.47 µM	6.95 µM	–
O=c1[nH]c(-c2ccc(C(F)(F)F)cc2)nc2c1CSCC2	–	–	–	23.7 µM	98.1 µM	–
COc1cc2c(cc1C)n(O)c(C)c(C(=O)C/C(=N/NC(=O)C[N+](C)(C)C)C(=O)Nc1cccc(Cl)c1C)[n+]2=O	> 100 µM	> 100 µM	> 100 µM	–	–	TGI (RXF-631 renal): > 100 µM
COc1ccc(/C=C2\N=C3SC=C(N)N3C2=O)cc1	–	–	–	0.334 µM	14.9 µM	–
Cn1cnc([N+](=O)[O-])c1Sc1ncnc2c1ncn2C1OC(CO)C(O)C1O (stereo unspecified)	–	–	–	5.01 µM	> 100 µM	–
CCOC(=O)C(C[Si](C)(C)C)P(=O)(OCC)OCC (stereo unspecified)	> 100 µM	> 100 µM	> 100 µM	–	–	TGI (RXF-631 renal): > 100 µM
O=Cc1coc2ccccc2c1=O	–	–	–	–	> 100 µM	TGI (MDA-N): 52.3 µM
O=C(NNS(=O)(=O)c1cc(C(F)(F)F)cc(C(F)(F)F)c1)c1cnn(-c2ccc(Cl)cc2)c1C(F)(F)F	–	–	–	17.5 µM	45 µM	–
COc1ccc(/C=C2\COc3ccc(-c4ccccc4)cc3C2=O)cc1O	–	–	–	3.28 µM	30.2 µM	–
CCC1(CN(C)C)CC/C(=C\c2ccc3c(c2)OCO3)C1=O (stereo unspecified)	> 100 µM	–	> 100 µM	–	–	TGI (RXF-631 renal): > 100 µM
CC1OC(O)C(O)C(O)C1O (stereo unspecified)	–	–	–	–	> 100 µM	TGI (MDA-N): > 100 µM
CCS/C(Nc1ccccc1)=C(\C#N)C(=O)Nc1ccc(OC)cc1	–	–	–	4.08 µM	> 100 µM	–
C[Si](C)(C)/C=C/CN1C(=O)CCC1O (stereo unspecified)	> 100 µM	> 100 µM	> 100 µM	–	–	–
O=C1/C(=C/c2cccs2)CCC/C1=C\c1cccs1	–	–	–	2.13 µM	> 72.8 µM	–

SMILES	TGI (KM20L2 colon)	TGI (DMS 114 small cell lung)	TGI (LXFL 529 NSCLC)	GI50 (T-47D breast)	TGI (T-47D breast)	other results
CCOC(=O)C12CC1(C(=O)OCC)C1CCC2C1 (stereo unspecified)	–	> 100 µM	> 100 µM	–	–	TGI (RXF-631 renal): > 100 µM
C[Se]C(=O)CC1=C2C=C(F)C=CC2/C(=C\c2ccc(S(C)=O)cc2)C1C (stereo unspecified)	–	–	–	2.94 µM	> 34 µM	–
CC(=O)/C(C)=N/N/C(N)=N\S(=O)(=O)c1cc(C(=O)Nc2ccccc2)c(Cl)cc1SCc1ccccc1	–	–	–	> 100 µM	> 100 µM	–
Cn1c(O)c(C(=O)Nc2ccc([N+](=O)[O-])cc2)c(=O)n(C)c1=S	20.4 µM	4.81 µM	> 50.1 µM	–	–	–
C=C1C(C)C2C(Cc3ccccc3)NC(=O)C23C(OC(C)=O)/C=C/C(C)(O)CC(C)C/C=C/C3C1O (stereo unspecified)	> 100 µM	> 100 µM	–	–	> 100 µM	TGI (SN12K1 renal): 37.1 µM; TGI (P388/ADR leukemia): 33.5 µM; TGI (MDA-N): > 100 µM; TGI (P388 leukemia): 41.3 µM
COc1ccc(/C=C(\C#N)c2cc3ccccc3n2C)cc1	–	–	–	0.389 µM	> 100 µM	–
O=C(/C=C/c1ccco1)Nc1ncc(Cc2ccc(F)cc2)s1	–	–	–	0.03 µM	> 100 µM	–
Fc1ccccc1C1CC(C(c2ccccc2)c2ccccc2)=Nc2ccccc2S1 (stereo unspecified)	27.6 µM	23.6 µM	15.3 µM	–	–	TGI (RXF-631 renal): 27.2 µM
CCC1(OC(C)=O)C(=O)OCc2c1cc1n(c2=O)Cc2cc3ccccc3nc2-1 (stereo unspecified)	> 100 µM	11.9 µM	> 100 µM	–	–	TGI (RXF-631 renal): > 100 µM
COC1=C(OC)CCC(/C(C#N)=C/c2ccc(OC)c(OC)c2)=C1	> 100 µM	> 100 µM	> 100 µM	–	–	TGI (RXF-631 renal): > 100 µM
Cc1ccc(NC(=O)C(=O)Cc2nc3ccccc3o2)c(C)c1	> 100 µM	> 100 µM	> 100 µM	–	–	TGI (RXF-631 renal): > 100 µM
CCCCCCCCCC(=O)CC(=O)c1c(O)cccc1O	> 100 µM	89.5 µM	> 100 µM	–	–	–
CC1(C)OCN(c2ccc(Cl)cc2)Cn2c1nc1ccccc12	> 100 µM	53.2 µM	> 100 µM	–	> 100 µM	TGI (MDA-N): > 100 µM
CCSC1=CC(=O)c2ccccc2C1=O	–	–	–	0.318 µM	0.959 µM	–
COc1ccccc1/C=C\c1cc(OC)c(OC)c(OC)c1	–	> 100 µM	> 100 µM	–	–	TGI (RXF-631 renal): > 100 µM
O=c1cccccc1NCCCCNc1cccccc1=O	> 100 µM	> 100 µM	> 100 µM	–	–	TGI (RXF-631 renal): > 100 µM
COc1ccc2c(c1)OC13Oc4cc(OC)ccc4C=C1CCCC3=C2	–	–	–	4.7 µM	> 100 µM	–
CC(=O)OC1CCC2(C)C(=CC(C3C=C4CC(OC(C)=O)CCC4(C)C4=C3C3CC5OC6(CCC(C)CO6)C(C)C5C3(C)CC4)C3=C2CCC2(C)C3CC3OC4(CCC(C)CO4)C(C)C32)C1 (stereo unspecified)	–	–	–	–	42.7 µM	TGI (MDA-N): 30.9 µM
CC(C)(C)CC(C)(C)c1ccc(OCCOCCSC(=N)N)cc1	–	–	–	1.68 µM	3.54 µM	–

From PubChem BioAssay (NCI)
